# ChEMBL document CHEMBL5303573, “Mapping human microbiome drug metabolism by gut bacteria and their genes” (Nature, 2019)
# Non-standard residues stand in square brackets, D forms with d. Residues, ends and D or L forms follow the SMILES beside them. pGlu = O=C1CC[C@@H](C(=O)O)N1; Thz = O=C(O)[C@@H]1CSCN1
# What was measured:
# [1] = The drug is tested on Bacteroides uniformis strain: ATCC8492 for biotransformation. The drug concentrations were measured before and after a 12-h incubation by liquid-chromatography-coupled mass spectrometry (LC–MS); details: 2 µM
# [2] = The drug is tested on Clostridium sp. strain: fecal isolate for biotransformation. The drug concentrations were measured before and after a 12-h incubation by liquid-chromatography-coupled mass spectrometry (LC–MS); details: 2 µM
# [3] = The drug is tested on Ruminococcus gnavus strain: ATCC29149 for biotransformation. The drug concentrations were measured before and after a 12-h incubation by liquid-chromatography-coupled mass spectrometry (LC–MS); details: mediterraneibacter gnavus, 2 µM
# [4] = bacteroides eggerthii, 12 h, 2 µM
# Description: The drug is tested on Bacteroides eggerthii strain: DSM20697 for biotransformation. The drug concentrations were measured before and after a 12-h incubation by liquid-chromatography-coupled mass spectrometry (LC–MS)
# [5] = The drug is tested on Eggerthella lenta strain: ATCC25559 for biotransformation. The drug concentrations were measured before and after a 12-h incubation by liquid-chromatography-coupled mass spectrometry (LC–MS); details: 2 µM
# [6] = The drug is tested on Subdoligranulum variabile strain: DSM15176 for biotransformation. The drug concentrations were measured before and after a 12-h incubation by liquid-chromatography-coupled mass spectrometry (LC–MS); details: 2 µM
# [7] = victivallis vadensis, 12 h, 2 µM
# Description: The drug is tested on Victivallis vadensis strain: ATCC BAA-548 for biotransformation. The drug concentrations were measured before and after a 12-h incubation by liquid-chromatography-coupled mass spectrometry (LC–MS)
Compound,Bacterial Biotransformation [1],Bacterial Biotransformation [2],Bacterial Biotransformation [3],Bacterial Biotransformation [4],Bacterial Biotransformation [5],Bacterial Biotransformation [6],Bacterial Biotransformation [7]
CCN(C(C)=O)c1cccc(-c2ccnc3c(C#N)cnn23)c1 [ZALEPLON],Compound metabolized,Compound metabolized,Compound NOT metabolized,Compound NOT metabolized,,,
CN[C@H]1CC[C@@H](c2ccc(Cl)c(Cl)c2)c2ccccc21 [SERTRALINE],Compound NOT metabolized,,Compound NOT metabolized,Compound NOT metabolized,Compound NOT metabolized,Compound NOT metabolized,
O=P(O)(O)O.c1ccc(CN(CC2=NCCN2)c2ccccc2)cc1 [ANTAZOLINE PHOSPHATE],Compound NOT metabolized,Compound NOT metabolized,Compound NOT metabolized,Compound NOT metabolized,,Compound NOT metabolized,
CC(=O)OCC(=O)[C@@]1(O)[C@@H](C)C[C@H]2[C@@H]3CCC4=CC(=O)C=C[C@]4(C)[C@@]3(F)[C@@H](O)C[C@@]21C [BETAMETHASONE ACETATE],,Compound metabolized,Compound NOT metabolized,,Compound NOT metabolized,Compound NOT metabolized,
CCOC(=O)C1=C[C@]2(CC)CCCN3CCc4c(n1c1ccccc41)[C@@H]32 [VINPOCETINE],,Compound metabolized,Compound NOT metabolized,Compound NOT metabolized,Compound NOT metabolized,,
CCCc1nc2c(C)cc(-c3nc4ccccc4n3C)cc2n1Cc1ccc(-c2ccccc2C(=O)O)cc1,Compound metabolized,,Compound NOT metabolized,,Compound NOT metabolized,,
CCOc1ccccc1OCCN[C@H](C)Cc1ccc(OC)c(S(N)(=O)=O)c1.Cl [TAMSULOSIN HYDROCHLORIDE],Compound NOT metabolized,Compound NOT metabolized,Compound NOT metabolized,Compound NOT metabolized,Compound NOT metabolized,Compound NOT metabolized,
COc1cc2nc(N3CCN(C(=O)C4CCCO4)CC3)nc(N)c2cc1OC (centres undefined) [TERAZOSIN],Compound NOT metabolized,Compound NOT metabolized,Compound NOT metabolized,Compound NOT metabolized,Compound NOT metabolized,Compound NOT metabolized,
CN1CC(=O)N2[C@H](c3ccc4c(c3)OCO4)c3[nH]c4ccccc4c3C[C@@H]2C1=O,Compound NOT metabolized,Compound NOT metabolized,Compound NOT metabolized,Compound NOT metabolized,,,
O=C1CC2(CCCC2)CC(=O)N1CCCCN1CCN(c2ncccn2)CC1 [BUSPIRONE],Compound NOT metabolized,Compound NOT metabolized,Compound NOT metabolized,Compound NOT metabolized,,Compound NOT metabolized,
CCOc1ccc(NC(C)=O)cc1 [PHENACETIN],Compound NOT metabolized,Compound NOT metabolized,Compound NOT metabolized,Compound NOT metabolized,,,
COc1cc(C(=O)NCc2ccc(OCCN(C)C)cc2)cc(OC)c1OC [TRIMETHOBENZAMIDE],Compound NOT metabolized,Compound NOT metabolized,Compound NOT metabolized,Compound NOT metabolized,,Compound NOT metabolized,
C[C@@H](c1ncncc1F)[C@](O)(Cn1cncn1)c1ccc(F)cc1F [VORICONAZOLE],Compound metabolized,Compound NOT metabolized,Compound NOT metabolized,Compound NOT metabolized,Compound NOT metabolized,Compound NOT metabolized,
c1ccc2[nH]c(-c3cscn3)nc2c1 [THIABENDAZOLE],Compound NOT metabolized,Compound NOT metabolized,Compound NOT metabolized,Compound NOT metabolized,Compound NOT metabolized,Compound NOT metabolized,
CC(O)(CS(=O)(=O)c1ccc(F)cc1)C(=O)Nc1ccc(C#N)c(C(F)(F)F)c1 (centres undefined) [BICALUTAMIDE],Compound NOT metabolized,Compound NOT metabolized,Compound NOT metabolized,Compound NOT metabolized,,,
CNS(=O)(=O)Cc1ccc2[nH]cc(CCN(C)C)c2c1.O=C(O)CCC(=O)O [SUMATRIPTAN SUCCINATE],,Compound NOT metabolized,Compound NOT metabolized,Compound NOT metabolized,,,Compound NOT metabolized

Compound,Bacterial Biotransformation [1],Bacterial Biotransformation [2],Bacterial Biotransformation [3],Bacterial Biotransformation [4],Bacterial Biotransformation [5],Bacterial Biotransformation [6],Bacterial Biotransformation [7]
Cc1ccc(S(=O)(=O)NC(=O)NN2CCCCCC2)cc1 [TOLAZAMIDE],Compound metabolized,Compound metabolized,Compound NOT metabolized,Compound metabolized,,,
CCN1CCCC1CNC(=O)c1cc(S(N)(=O)=O)ccc1OC (centres undefined) [SULPIRIDE],Compound NOT metabolized,Compound NOT metabolized,Compound NOT metabolized,Compound NOT metabolized,Compound NOT metabolized,,
CCc1cccc2c3c([nH]c12)C(CC)(CC(=O)O)OCC3 (centres undefined) [ETODOLAC],Compound metabolized,Compound NOT metabolized,Compound NOT metabolized,Compound NOT metabolized,Compound NOT metabolized,,
O=C1CC[C@@H](C(=O)N2CSC[C@H]2C(=O)O)N1 [PIDOTIMOD] ([pGlu]-[Thz]-OH),Compound metabolized,Compound metabolized,Compound NOT metabolized,Compound NOT metabolized,,Compound NOT metabolized,
CN(CCOc1ccc(CC2SC(=O)NC2=O)cc1)c1ccccn1.O=C(O)/C=C\C(=O)O (centres undefined) [ROSIGLITAZONE MALEATE],Compound NOT metabolized,Compound NOT metabolized,Compound NOT metabolized,Compound NOT metabolized,,,
COc1ccccc1OCC(O)CN1CCN(CC(=O)Nc2c(C)cccc2C)CC1 (centres undefined) [RANOLAZINE],Compound NOT metabolized,Compound NOT metabolized,Compound NOT metabolized,Compound NOT metabolized,,Compound NOT metabolized,
CCCc1nn(C)c2c(=O)[nH]c(-c3cc(S(=O)(=O)N4CCN(C)CC4)ccc3OCC)nc12.O=C(O)CC(O)(CC(=O)O)C(=O)O [SILDENAFIL CITRATE],Compound NOT metabolized,Compound metabolized,Compound NOT metabolized,Compound NOT metabolized,,Compound NOT metabolized,
O=C(CCCN1CCC2(CC1)C(=O)NCN2c1ccccc1)c1ccc(F)cc1 [SPIPERONE],Compound NOT metabolized,Compound NOT metabolized,Compound NOT metabolized,Compound NOT metabolized,,,
O=C1N=C([O-])NC1(c1ccccc1)c1ccccc1.[Na+] [PHENYTOIN SODIUM],Compound metabolized,,Compound NOT metabolized,,,Compound NOT metabolized,
N=C(N)NC(=O)Cc1c(Cl)cccc1Cl [GUANFACINE],Compound NOT metabolized,,Compound NOT metabolized,Compound NOT metabolized,,,Compound NOT metabolized
COc1cc2nc(N(C)CCCNC(=O)C3CCCO3)nc(N)c2cc1OC (centres undefined) [ALFUZOSIN],,Compound NOT metabolized,Compound NOT metabolized,Compound NOT metabolized,,Compound NOT metabolized,
Cc1cn([C@H]2C[C@H](N=[N+]=[N-])[C@@H](CO)O2)c(=O)[nH]c1=O [ZIDOVUDINE],,,,Compound metabolized,Compound NOT metabolized,Compound NOT metabolized,
C[C@@H](CO)NC(=O)[C@@H]1C=C2c3cccc4[nH]cc(c34)C[C@H]2N(C)C1.O=C(O)/C=C\C(=O)O [ERGONOVINE MALEATE],Compound metabolized,,,,,Compound NOT metabolized,
O=c1n(CCCN2CCN(c3cccc(Cl)c3)CC2)nc2ccccn12 [TRAZODONE],,,,Compound NOT metabolized,Compound NOT metabolized,Compound NOT metabolized,
CC(CN1c2ccccc2Sc2ccccc21)N(C)C (centres undefined) [PROMETHAZINE],Compound NOT metabolized,,Compound NOT metabolized,Compound NOT metabolized,,,
Br.CN1CCC[C@@H]1Cc1c[nH]c2ccc(CCS(=O)(=O)c3ccccc3)cc12 [ELETRIPTAN HYDROBROMIDE],Compound NOT metabolized,Compound NOT metabolized,Compound NOT metabolized,Compound NOT metabolized,,Compound NOT metabolized,
